Results reported in paper PMC5218480 (PLoS ONE, 2017).

System: MV-4-11 cells
Test: Gene expression microarray analysis (Affymetrix PrimeView) and GSEA
Format: cell-based, human
Parameters: RFU PODN (11730768_x_at) / Fold change /veh PODN (11730768_x_at) / RFU LINC00158 (11744669_a_at) / Fold change /veh LINC00158 (11744669_a_at) / RFU DUSP10 (11751237_a_at) / Fold change /veh DUSP10 (11751237_a_at) / RFU ID3 (11757404_x_at) / Fold change /veh ID3 (11757404_x_at) / RFU PLEKHG5 (11737974_s_at) / Fold change /veh PLEKHG5 (11737974_s_at) / RFU LRRC4B (11730491_at) / Fold change /veh LRRC4B (11730491_at) / RFU GIMAP4 (11747438_a_at) / Fold change /veh GIMAP4 (11747438_a_at) / RFU KRT8 (11758183_x_at) / Fold change /veh KRT8 (11758183_x_at) / RFU CNN1 (11734310_a_at) / Fold change /veh CNN1 (11734310_a_at) / RFU VPS37D (11726825_at) / Fold change /veh VPS37D (11726825_at) / RFU C10orf10 (11716522_x_at) / Fold change /veh C10orf10 (11716522_x_at) / RFU KIR2DL2 /// KIR2DL4 /// KIR2DL5A /// KIR2DL5B /// KIR2DS1 /// KIR2DS2 /// KIR2DS3 /// KIR2DS4 /// KIR3DL3 /// KIR3DL3 /// KIR3DS1 (11738374_at) / Fold change /veh KIR2DL2 /// KIR2DL4 /// KIR2DL5A /// KIR2DL5B /// KIR2DS1 /// KIR2DS2 /// KIR2DS3 /// KIR2DS4 /// KIR3DL3 /// KIR3DL3 /// KIR3DS1 (11738374_at) / RFU C1QL1 (11718748_at) / Fold change /veh C1QL1 (11718748_at) / RFU TMPRSS4 (11747572_a_at) / Fold change /veh TMPRSS4 (11747572_a_at) / RFU HAMP (11756126_x_at) / Fold change /veh HAMP (11756126_x_at) / RFU RNFT2 (11725882_a_at) / Fold change /veh RNFT2 (11725882_a_at) / RFU NR4A2 (11747474_a_at) / Fold change /veh NR4A2 (11747474_a_at) / RFU ABCC12 (11746883_a_at) / Fold change /veh ABCC12 (11746883_a_at) / RFU TMEM136 (11760407_x_at) / Fold change /veh TMEM136 (11760407_x_at) / RFU CLDN22 /// WWC2 (11732394_at) / Fold change /veh CLDN22 /// WWC2 (11732394_at) / RFU HLA-DPB1 (11760878_x_at) / Fold change /veh HLA-DPB1 (11760878_x_at) / RFU SPINT1 (11716480_a_at) / Fold change /veh SPINT1 (11716480_a_at) / RFU GAP43 (11754022_s_at) / Fold change /veh GAP43 (11754022_s_at) / RFU A4GNT (11735810_at) / Fold change /veh A4GNT (11735810_at) / RFU PRB3 (11715151_x_at) / Fold change /veh PRB3 (11715151_x_at) / RFU TUBB4B (11761932_at) / Fold change /veh TUBB4B (11761932_at) / RFU CAPN14 (11732068_a_at) / Fold change /veh CAPN14 (11732068_a_at) / RFU TMCC2 (11721928_a_at) / Fold change /veh TMCC2 (11721928_a_at) / RFU IRGQ (11745062_a_at) / Fold change /veh IRGQ (11745062_a_at) / RFU FAM174B (11720279_a_at) / Fold change /veh FAM174B (11720279_a_at) / RFU TMPRSS4 (11748680_a_at) / Fold change /veh TMPRSS4 (11748680_a_at) / RFU FAM212B (11763350_a_at) / Fold change /veh FAM212B (11763350_a_at) / RFU PLEKHG5 (11743358_a_at) / Fold change /veh PLEKHG5 (11743358_a_at) / RFU ZSCAN30 (11745921_a_at) / Fold change /veh ZSCAN30 (11745921_a_at) / RFU CMKLR1 (11741424_a_at) / Fold change /veh CMKLR1 (11741424_a_at) / RFU LOC101060620 /// MAPK8IP1 (11723275_at) / Fold change /veh LOC101060620 /// MAPK8IP1 (11723275_at) / RFU SPTSSB (11747773_x_at) / Fold change /veh SPTSSB (11747773_x_at) / RFU PRSS12 (11739890_at) / Fold change /veh PRSS12 (11739890_at) / RFU BIN1 (11741810_x_at) / Fold change /veh BIN1 (11741810_x_at) / RFU WNT11 (11732464_a_at) / Fold change /veh WNT11 (11732464_a_at) / RFU C10orf10 (11716521_a_at) / Fold change /veh C10orf10 (11716521_a_at) / RFU C5orf56 (11738089_at) / Fold change /veh C5orf56 (11738089_at) / RFU CYB561 (11721691_x_at) / Fold change /veh CYB561 (11721691_x_at) / RFU ANKRD19P (11752326_a_at) / Fold change /veh ANKRD19P (11752326_a_at) / RFU OR2T12 /// OR2T33 /// OR2T8 (11738714_s_at) / Fold change /veh OR2T12 /// OR2T33 /// OR2T8 (11738714_s_at) / RFU VCAN (11748164_a_at) / Fold change /veh VCAN (11748164_a_at) / RFU JSRP1 (11732532_at) / Fold change /veh JSRP1 (11732532_at) / RFU KRTAP10-11 (11738290_x_at) / Fold change /veh KRTAP10-11 (11738290_x_at) / RFU MYO3A (11730013_a_at) / Fold change /veh MYO3A (11730013_a_at) / RFU EBF3 (11725865_a_at) / Fold change /veh EBF3 (11725865_a_at) / RFU CAMK2N1 (11719241_x_at) / Fold change /veh CAMK2N1 (11719241_x_at) / RFU C5orf56 (11738088_a_at) / Fold change /veh C5orf56 (11738088_a_at) / RFU OLFML3 (11715873_a_at) / Fold change /veh OLFML3 (11715873_a_at) / RFU LOC100653217 /// NTM (11731650_a_at) / Fold change /veh LOC100653217 /// NTM (11731650_a_at) / RFU MAPK11 (11762145_a_at) / Fold change /veh MAPK11 (11762145_a_at) / RFU FIZ1 (11724087_x_at) / Fold change /veh FIZ1 (11724087_x_at) / RFU OASL (11726364_x_at) / Fold change /veh OASL (11726364_x_at) / RFU SOX15 (11748057_x_at) / Fold change /veh SOX15 (11748057_x_at) / RFU CD79A (11719716_a_at) / Fold change /veh CD79A (11719716_a_at) / RFU HIST1H1D (11736915_at) / Fold change /veh HIST1H1D (11736915_at) / RFU CASKIN2 (11723855_a_at) / Fold change /veh CASKIN2 (11723855_a_at) / RFU LOC730098 (11760151_x_at) / Fold change /veh LOC730098 (11760151_x_at) / RFU OR4N2 (11742367_at) / Fold change /veh OR4N2 (11742367_at) / RFU PRRT2 (11749266_a_at) / Fold change /veh PRRT2 (11749266_a_at) / RFU SNX32 (11753110_a_at) / Fold change /veh SNX32 (11753110_a_at) / RFU CDHR5 (11726645_a_at) / Fold change /veh CDHR5 (11726645_a_at) / RFU RCAN1 (11760418_a_at) / Fold change /veh RCAN1 (11760418_a_at) / RFU FAM167A (11723789_a_at) / Fold change /veh FAM167A (11723789_a_at) / RFU FAM26E (11764081_at) / Fold change /veh FAM26E (11764081_at) / RFU ISYNA1 (11749810_s_at) / Fold change /veh ISYNA1 (11749810_s_at) / RFU ACY1 (11761880_at) / Fold change /veh ACY1 (11761880_at) / RFU 11764098_at / Fold change /veh 11764098_at / RFU SAMD14 (11745864_x_at) / Fold change /veh SAMD14 (11745864_x_at) / RFU NPB (11741838_a_at) / Fold change /veh NPB (11741838_a_at) / RFU TMPRSS6 (11731388_a_at) / Fold change /veh TMPRSS6 (11731388_a_at) / RFU KRTAP10-2 (11738614_at) / Fold change /veh KRTAP10-2 (11738614_at) / RFU ARHGAP8 /// PRR5-ARHGAP8 (11727945_x_at) / Fold change /veh ARHGAP8 /// PRR5-ARHGAP8 (11727945_x_at) / RFU KRTAP5-7 /// NADSYN1 (11734609_at) / Fold change /veh KRTAP5-7 /// NADSYN1 (11734609_at) / RFU RASL12 (11751679_a_at) / Fold change /veh RASL12 (11751679_a_at) / RFU CDKN2B (11736163_a_at) / Fold change /veh CDKN2B (11736163_a_at) / RFU PRF1 (11729649_at) / Fold change /veh PRF1 (11729649_at) / RFU, ZNF638 /// ZNF638-IT1 / Fold change vs veh, ZNF638 /// ZNF638-IT1 / RFU, PANK3 / Fold change vs veh, PANK3 / RFU, SH3YL1 / Fold change vs veh, SH3YL1 / RFU, ZEB2 / Fold change vs veh, ZEB2 / RFU, NRIP1 / Fold change vs veh, NRIP1 / RFU, PTTG1IP / Fold change vs veh, PTTG1IP / RFU, CAPN2 / Fold change vs veh, CAPN2 / RFU, MED14 / Fold change vs veh, MED14 / RFU, SNORA58 / Fold change vs veh, SNORA58 / RFU, C1orf63 / Fold change vs veh, C1orf63 / RFU, LRRFIP1 / Fold change vs veh, LRRFIP1 / RFU, NDUFAF7 / Fold change vs veh, NDUFAF7 / RFU, SLC12A2 / Fold change vs veh, SLC12A2 / RFU, IBTK / Fold change vs veh, IBTK / RFU, ESF1 / Fold change vs veh, ESF1 / Fold change vs veh, TMEM50B / RFU, TAOK1 / Fold change vs veh, TAOK1 / RFU, ACBD3 / Fold change vs veh, ACBD3 / RFU, TMA16 / Fold change vs veh, TMA16 / RFU, RWDD3 / Fold change vs veh, RWDD3 / RFU, BCAT1 / Fold change vs veh, BCAT1 / RFU, EDEM3 / Fold change vs veh, EDEM3 / RFU, TMEM33 / Fold change vs veh, TMEM33 / RFU, WDR75 / Fold change vs veh, WDR75 / RFU, AHCTF1 / Fold change vs veh, AHCTF1 / RFU, TFRC / Fold change vs veh, TFRC / RFU, ZDHHC17 / Fold change vs veh, ZDHHC17 / RFU, NOM1 / Fold change vs veh, NOM1 / RFU, ARL8B / Fold change vs veh, ARL8B / RFU, ZBTB11 / Fold change vs veh, ZBTB11 / RFU, TAMM41 / Fold change vs veh, TAMM41 / RFU, KIAA1704 /// LOC100996395 / Fold change vs veh, KIAA1704 /// LOC100996395 / RFU, ING1 / Fold change vs veh, ING1 / RFU, TRMT61B / Fold change vs veh, TRMT61B / RFU, FUBP3 / Fold change vs veh, FUBP3 / RFU, TP53 / Fold change vs veh, TP53 / RFU, TNKS2 / Fold change vs veh, TNKS2 / RFU, ZFP14 / Fold change vs veh, ZFP14 / RFU, ACTR2 / Fold change vs veh, ACTR2 / RFU, PPP3R1 / Fold change vs veh, PPP3R1 / RFU, PIK3R1 / Fold change vs veh, PIK3R1 / RFU, HNRNPA1 / Fold change vs veh, HNRNPA1 / RFU, RNF170 / Fold change vs veh, RNF170 / RFU, ZNF28 / Fold change vs veh, ZNF28 / RFU, RNGTT / Fold change vs veh, RNGTT / RFU, OGT / Fold change vs veh, OGT / RFU, BRD1 / Fold change vs veh, BRD1 / RFU, MARS / Fold change vs veh, MARS / RFU, ZNF655 / Fold change vs veh, ZNF655 / RFU, FAHD1 / Fold change vs veh, FAHD1 / RFU, BDP1 / Fold change vs veh, BDP1 / RFU, LRRCC1 / Fold change vs veh, LRRCC1 / RFU, ARID1A / Fold change vs veh, ARID1A / RFU, ZNF146 / Fold change vs veh, ZNF146 / RFU, ZNF330 / Fold change vs veh, ZNF330 / RFU, GPN3 / Fold change vs veh, GPN3 / RFU, C9orf123 / Fold change vs veh, C9orf123 / RFU, N4BP2L2 / Fold change vs veh, N4BP2L2 / RFU, ARFIP1 / Fold change vs veh, ARFIP1 / RFU, FAM179B / Fold change vs veh, FAM179B / RFU, BCL10 / Fold change vs veh, BCL10 / RFU, UHRF1BP1L / Fold change vs veh, UHRF1BP1L / RFU, BET1 / Fold change vs veh, BET1 / RFU, CNOT2 / Fold change vs veh, CNOT2 / RFU, ZNF268 / Fold change vs veh, ZNF268 / Fold change vs veh, ZNF507 / RFU, DGCR2 / Fold change vs veh, DGCR2 / RFU, WDSUB1 / Fold change vs veh, WDSUB1 / Fold change vs veh, HSP90B1 /// MIR3652 / RFU, ADSS / Fold change vs veh, ADSS / RFU, GK / Fold change vs veh, GK / RFU, ZNF148 / Fold change vs veh, ZNF148 / RFU, TAF9 / Fold change vs veh, TAF9 / RFU, SLC1A5 / Fold change vs veh, SLC1A5 / RFU, SLMO2 / Fold change vs veh, SLMO2 / RFU, ABCC4 / Fold change vs veh, ABCC4 / RFU, LOC101060439 /// RAP1B / Fold change vs veh, LOC101060439 /// RAP1B / RFU, RFX7 / Fold change vs veh, RFX7 / RFU, GTPBP10 / Fold change vs veh, GTPBP10 / RFU, CNEP1R1 / Fold change vs veh, CNEP1R1 / RFU, BIVM-ERCC5 /// ERCC5 / Fold change vs veh, BIVM-ERCC5 /// ERCC5 / RFU, ILF3 / Fold change vs veh, ILF3 / RFU 11762660_at / Fold change /veh 11762660_at / RFU VCAN (11757783_s_at) / Fold change /veh VCAN (11757783_s_at) / RFU DDX43 (11728927_at) / Fold change /veh DDX43 (11728927_at) / RFU KRT8 (11758188_x_at) / Fold change /veh KRT8 (11758188_x_at) / RFU NKD1 (11759106_at) / Fold change /veh NKD1 (11759106_at) / RFU SRD5A1 (11742802_a_at) / Fold change /veh SRD5A1 (11742802_a_at) / RFU TPSAB1 /// TPSB2 (11721975_s_at) / Fold change /veh TPSAB1 /// TPSB2 (11721975_s_at) / RFU GSTM3 (11746129_a_at) / Fold change /veh GSTM3 (11746129_a_at) / RFU IL23R (11737362_x_at) / Fold change /veh IL23R (11737362_x_at) / RFU TMEM51 (11727254_a_at) / Fold change /veh TMEM51 (11727254_a_at) / RFU PIWIL2 (11732686_x_at) / Fold change /veh PIWIL2 (11732686_x_at) / RFU ORM1 (11744905_x_at) / Fold change /veh ORM1 (11744905_x_at) / RFU CCDC152 (11743942_at) / Fold change /veh CCDC152 (11743942_at) / RFU ECM1 (11717891_a_at) / Fold change /veh ECM1 (11717891_a_at) / RFU IL23R (11748794_a_at) / Fold change /veh IL23R (11748794_a_at) / RFU TNFAIP8L3 (11732012_x_at) / Fold change /veh TNFAIP8L3 (11732012_x_at) / RFU MBOAT4 (11741988_at) / Fold change /veh MBOAT4 (11741988_at) / RFU 11764193_at / Fold change /veh 11764193_at / RFU TMEM53 (11763286_at) / Fold change /veh TMEM53 (11763286_at) / RFU MAGEB2 (11727129_at) / Fold change /veh MAGEB2 (11727129_at) / RFU TMEM200A (11744735_a_at) / Fold change /veh TMEM200A (11744735_a_at) / RFU CCDC152 (11751479_a_at) / Fold change /veh CCDC152 (11751479_a_at) / RFU FAM211A (11726209_a_at) / Fold change /veh FAM211A (11726209_a_at) / RFU RGS16 (11746705_a_at) / Fold change /veh RGS16 (11746705_a_at) / RFU VCAN (11755009_s_at) / Fold change /veh VCAN (11755009_s_at) / RFU RHOB (11743442_s_at) / Fold change /veh RHOB (11743442_s_at) / RFU RGS16 (11720943_a_at) / Fold change /veh RGS16 (11720943_a_at) / RFU RGS16 (11720944_at) / Fold change /veh RGS16 (11720944_at) / RFU, VPS4B / Fold change vs veh, VPS4B / RFU, CREB1 / Fold change vs veh, CREB1 / RFU, DNAJC13 / Fold change vs veh, DNAJC13 / RFU, GNAQ / Fold change vs veh, GNAQ / RFU, CDK5R1 / Fold change vs veh, CDK5R1 / RFU, ZRANB3 / Fold change vs veh, ZRANB3 / RFU, CUL4A / Fold change vs veh, CUL4A / RFU, CCNY / Fold change vs veh, CCNY / RFU, UFL1 / Fold change vs veh, UFL1 / RFU, COG3 / Fold change vs veh, COG3 / RFU, DIAPH2 / Fold change vs veh, DIAPH2 / RFU, SKA2 / Fold change vs veh, SKA2 / RFU, AFF3 / Fold change vs veh, AFF3 / RFU, LMF1 / Fold change vs veh, LMF1 / RFU, IPO11 / Fold change vs veh, IPO11 / RFU, DFFB / Fold change vs veh, DFFB / RFU, FOXP1 / Fold change vs veh, FOXP1 / RFU, CARD8 / Fold change vs veh, CARD8 / RFU, STRN3 / Fold change vs veh, STRN3 / RFU, ADK / Fold change vs veh, ADK / RFU, RASSF2 / Fold change vs veh, RASSF2 / RFU, WIPF1 / Fold change vs veh, WIPF1 / RFU, LARP1B / Fold change vs veh, LARP1B / RFU, RASA1 / Fold change vs veh, RASA1 / RFU, RB1 / Fold change vs veh, RB1 / RFU, PPFIA1 / Fold change vs veh, PPFIA1 / RFU, MAT2A / Fold change vs veh, MAT2A / RFU, CCT5 / Fold change vs veh, CCT5 / RFU, WDR92 / Fold change vs veh, WDR92 / RFU, CUX1 / Fold change vs veh, CUX1 / RFU, TTC7A / Fold change vs veh, TTC7A / RFU, TMEM135 / Fold change vs veh, TMEM135 / RFU, DEPTOR / Fold change vs veh, DEPTOR / RFU, CPM / Fold change vs veh, CPM / RFU, DNAJB6 / Fold change vs veh, DNAJB6 / RFU, CACNA2D3 / Fold change vs veh, CACNA2D3 / RFU, DTX4 / Fold change vs veh, DTX4 / RFU, TFCP2 / Fold change vs veh, TFCP2 / RFU, GMCL1 /// GMCL1P1 / Fold change vs veh, GMCL1 /// GMCL1P1 / RFU, AEBP2 / Fold change vs veh, AEBP2 / RFU, SNHG1 /// SNORD22 /// SNORD25 /// SNORD26 /// SNORD27 /// SNORD28 /// SNORD29 /// SNORD31 / Fold change vs veh, SNHG1 /// SNORD22 /// SNORD25 /// SNORD26 /// SNORD27 /// SNORD28 /// SNORD29 /// SNORD31 / Fold change (Aza/veh), C12orf56 (ProbeSet 11735607_a_at) / Fold change (ACY-1035/veh), C12orf56 (ProbeSet 11735607_a_at) / Fold change (Aza/veh), FGFR1OP (ProbeSet 11751329_s_at) / Fold change (ACY-1035/veh), FGFR1OP (ProbeSet 11751329_s_at) / Fold change (Aza/veh), VPS36 (ProbeSet 11739960_a_at) / Fold change (ACY-1035/veh), VPS36 (ProbeSet 11739960_a_at) / RFU SYPL1 (11715823_x_at) / Fold change /veh SYPL1 (11715823_x_at) / RFU IGFBP7 (11715501_s_at) / Fold change /veh IGFBP7 (11715501_s_at) / RFU REEP3 (11722064_at) / Fold change /veh REEP3 (11722064_at) / RFU IGLL1 (11728026_x_at) / Fold change /veh IGLL1 (11728026_x_at): dose or concentration left out as unconfirmed
Conditions: MV-4-11 cells, 48 hours

With Nc1ccc(-c2cccs2)cc1NC(=O)c1ccc2c(c1)cc(C1CC1)n2CCN1CCOCC1 [ACY-1035] the “RFU 11764098_at” value was 18.10 RFU.
